# According to the NIST ThermoML archive (doi:10.1021/acs.jced.7b00694):
# Numbers after ± are expanded uncertainties.
# Assay: xn = mol fraction of the nth substance listed
# Details: Gas, Buoyancy - hydrostatic balance with magnetic suspension - one sinker
smiles,measurement,setting,value
[HH] [hydrogen] + N#N,mass density,"324.95 K, 4997 kPa, x2 = 0.95",49.08 ± 0.057 kg/m3
same,mass density,"324.95 K, 4998 kPa, x2 = 0.9",46.597 ± 0.055 kg/m3
same,mass density,"324.95 K, 5000 kPa, x2 = 0.5001",27.194 ± 0.038 kg/m3
same,mass density,"324.95 K, 5997 kPa, x2 = 0.9",55.762 ± 0.055 kg/m3
same,mass density,"324.95 K, 5997 kPa, x2 = 0.95",58.767 ± 0.057 kg/m3
same,mass density,"324.95 K, 6001 kPa, x2 = 0.5001",32.482 ± 0.038 kg/m3
same,mass density,"324.95 K, 6997 kPa, x2 = 0.9",64.863 ± 0.056 kg/m3
same,mass density,"324.95 K, 7000 kPa, x2 = 0.95",68.408 ± 0.058 kg/m3
same,mass density,"324.95 K, 7002 kPa, x2 = 0.5001",37.712 ± 0.038 kg/m3
same,mass density,"324.95 K, 7996 kPa, x2 = 0.5001",42.85 ± 0.039 kg/m3
same,mass density,"324.95 K, 7997 kPa, x2 = 0.95",77.913 ± 0.058 kg/m3
same,mass density,"324.95 K, 7998 kPa, x2 = 0.9",73.894 ± 0.056 kg/m3
same,mass density,"324.95 K, 8997 kPa, x2 = 0.5001",47.967 ± 0.039 kg/m3
same,mass density,"324.95 K, 8998 kPa, x2 = 0.9",82.834 ± 0.056 kg/m3
same,mass density,"324.95 K, 8999 kPa, x2 = 0.95",87.379 ± 0.059 kg/m3
same,mass density,"324.95 K, 9998 kPa, x2 = 0.5001",53.025 ± 0.039 kg/m3
same,mass density,"324.95 K, 9998 kPa, x2 = 0.9",91.672 ± 0.057 kg/m3
same,mass density,"324.95 K, 9999 kPa, x2 = 0.95",96.736 ± 0.059 kg/m3
same,mass density,"324.95 K, 10996 kPa, x2 = 0.5001",58.014 ± 0.04 kg/m3
same,mass density,"324.95 K, 10996 kPa, x2 = 0.95",105.963 ± 0.059 kg/m3
same,mass density,"324.95 K, 10997 kPa, x2 = 0.9",100.42 ± 0.057 kg/m3
same,mass density,"324.95 K, 11997 kPa, x2 = 0.5001",62.949 ± 0.04 kg/m3
same,mass density,"324.95 K, 11999 kPa, x2 = 0.9",109.068 ± 0.058 kg/m3
same,mass density,"324.95 K, 12979 kPa, x2 = 0.95",123.971 ± 0.06 kg/m3
same,mass density,"324.95 K, 12995 kPa, x2 = 0.5001",67.81 ± 0.041 kg/m3
same,mass density,"324.95 K, 13000 kPa, x2 = 0.9",117.611 ± 0.058 kg/m3
same,mass density,"324.95 K, 13992 kPa, x2 = 0.5001",72.609 ± 0.04 kg/m3
same,mass density,"324.95 K, 13997 kPa, x2 = 0.9",126.005 ± 0.059 kg/m3
same,mass density,"324.95 K, 13998 kPa, x2 = 0.95",133.041 ± 0.061 kg/m3
same,mass density,"324.95 K, 14993 kPa, x2 = 0.5001",77.366 ± 0.041 kg/m3
same,mass density,"324.95 K, 14996 kPa, x2 = 0.9",134.301 ± 0.059 kg/m3
same,mass density,"324.95 K, 15985 kPa, x2 = 0.5001",82.016 ± 0.042 kg/m3
same,mass density,"324.95 K, 15998 kPa, x2 = 0.9",142.496 ± 0.059 kg/m3
same,mass density,"324.95 K, 16998 kPa, x2 = 0.5001",86.706 ± 0.042 kg/m3
same,mass density,"324.95 K, 17000 kPa, x2 = 0.9",150.561 ± 0.059 kg/m3
same,mass density,"324.95 K, 17998 kPa, x2 = 0.5001",91.271 ± 0.043 kg/m3
same,mass density,"324.95 K, 18003 kPa, x2 = 0.9",158.509 ± 0.06 kg/m3
same,mass density,"324.95 K, 18996 kPa, x2 = 0.5001",95.768 ± 0.043 kg/m3
same,mass density,"324.95 K, 19001 kPa, x2 = 0.9",166.298 ± 0.061 kg/m3
same,mass density,"324.95 K, 19974 kPa, x2 = 0.5001",100.115 ± 0.045 kg/m3
same,mass density,"349.93 K, 2982 kPa, x2 = 0.95",27.214 ± 0.052 kg/m3
same,mass density,"349.93 K, 12999 kPa, x2 = 0.95",114.314 ± 0.057 kg/m3
same,mass density,"349.93 K, 13999 kPa, x2 = 0.95",122.495 ± 0.057 kg/m3
same,mass density,"349.93 K, 14993 kPa, x2 = 0.95",130.518 ± 0.058 kg/m3
same,mass density,"349.93 K, 15998 kPa, x2 = 0.95",138.524 ± 0.058 kg/m3
same,mass density,"349.94 K, 997 kPa, x2 = 0.95",9.137 ± 0.052 kg/m3
same,mass density,"349.94 K, 998 kPa, x2 = 0.9",8.697 ± 0.05 kg/m3
same,mass density,"349.94 K, 999 kPa, x2 = 0.5001",5.133 ± 0.035 kg/m3
same,mass density,"349.94 K, 1998 kPa, x2 = 0.5001",10.223 ± 0.035 kg/m3
same,mass density,"349.94 K, 1998 kPa, x2 = 0.95",18.271 ± 0.052 kg/m3
same,mass density,"349.94 K, 1999 kPa, x2 = 0.9",17.375 ± 0.05 kg/m3
same,mass density,"349.94 K, 2979 kPa, x2 = 0.9",25.835 ± 0.05 kg/m3
same,mass density,"349.94 K, 2984 kPa, x2 = 0.5001",15.198 ± 0.036 kg/m3
same,mass density,"349.94 K, 3995 kPa, x2 = 0.5001",20.259 ± 0.036 kg/m3
same,mass density,"349.94 K, 3997 kPa, x2 = 0.95",36.385 ± 0.053 kg/m3
same,mass density,"349.94 K, 3998 kPa, x2 = 0.9",34.568 ± 0.051 kg/m3
same,mass density,"349.94 K, 4998 kPa, x2 = 0.9",43.083 ± 0.051 kg/m3
same,mass density,"349.94 K, 4998 kPa, x2 = 0.95",45.368 ± 0.053 kg/m3
same,mass density,"349.94 K, 5000 kPa, x2 = 0.5001",25.225 ± 0.036 kg/m3
same,mass density,"349.94 K, 5998 kPa, x2 = 0.5001",30.119 ± 0.037 kg/m3
same,mass density,"349.94 K, 5998 kPa, x2 = 0.9",51.533 ± 0.052 kg/m3
same,mass density,"349.94 K, 5998 kPa, x2 = 0.95",54.273 ± 0.054 kg/m3
same,mass density,"349.94 K, 6996 kPa, x2 = 0.5001",34.959 ± 0.037 kg/m3
same,mass density,"349.94 K, 6996 kPa, x2 = 0.95",63.099 ± 0.054 kg/m3
same,mass density,"349.94 K, 6997 kPa, x2 = 0.9",59.903 ± 0.052 kg/m3
same,mass density,"349.94 K, 7995 kPa, x2 = 0.5001",39.749 ± 0.037 kg/m3
same,mass density,"349.94 K, 7998 kPa, x2 = 0.9",68.207 ± 0.052 kg/m3
same,mass density,"349.94 K, 7998 kPa, x2 = 0.95",71.871 ± 0.054 kg/m3
same,mass density,"349.94 K, 8997 kPa, x2 = 0.5001",44.504 ± 0.037 kg/m3
same,mass density,"349.94 K, 8998 kPa, x2 = 0.9",76.424 ± 0.053 kg/m3
same,mass density,"349.94 K, 8999 kPa, x2 = 0.95",80.553 ± 0.055 kg/m3
same,mass density,"349.94 K, 9995 kPa, x2 = 0.5001",49.185 ± 0.038 kg/m3
same,mass density,"349.94 K, 9996 kPa, x2 = 0.9",84.544 ± 0.053 kg/m3
same,mass density,"349.94 K, 9999 kPa, x2 = 0.95",89.144 ± 0.055 kg/m3
same,mass density,"349.94 K, 10995 kPa, x2 = 0.5001",53.825 ± 0.038 kg/m3
same,mass density,"349.94 K, 10996 kPa, x2 = 0.9",92.584 ± 0.054 kg/m3
same,mass density,"349.94 K, 10998 kPa, x2 = 0.95",97.623 ± 0.056 kg/m3
same,mass density,"349.94 K, 11994 kPa, x2 = 0.5001",58.4 ± 0.039 kg/m3
same,mass density,"349.94 K, 11995 kPa, x2 = 0.95",105.989 ± 0.056 kg/m3
same,mass density,"349.94 K, 11997 kPa, x2 = 0.9",100.534 ± 0.054 kg/m3
same,mass density,"349.94 K, 12994 kPa, x2 = 0.9",108.364 ± 0.055 kg/m3
same,mass density,"349.94 K, 12996 kPa, x2 = 0.5001",62.939 ± 0.039 kg/m3
same,mass density,"349.94 K, 13990 kPa, x2 = 0.5001",67.389 ± 0.039 kg/m3
same,mass density,"349.94 K, 14000 kPa, x2 = 0.9",116.157 ± 0.055 kg/m3
same,mass density,"349.94 K, 14992 kPa, x2 = 0.5001",71.82 ± 0.039 kg/m3
same,mass density,"349.94 K, 14999 kPa, x2 = 0.9",123.797 ± 0.055 kg/m3
same,mass density,"349.94 K, 15993 kPa, x2 = 0.9",131.294 ± 0.056 kg/m3
same,mass density,"349.94 K, 15994 kPa, x2 = 0.5001",76.196 ± 0.04 kg/m3
same,mass density,"349.94 K, 16996 kPa, x2 = 0.5001",80.519 ± 0.04 kg/m3
same,mass density,"349.94 K, 16996 kPa, x2 = 0.95",146.347 ± 0.059 kg/m3
same,mass density,"349.94 K, 17001 kPa, x2 = 0.9",138.788 ± 0.056 kg/m3
same,mass density,"349.94 K, 17991 kPa, x2 = 0.5001",84.762 ± 0.041 kg/m3
same,mass density,"349.94 K, 17997 kPa, x2 = 0.9",146.084 ± 0.057 kg/m3
same,mass density,"349.94 K, 18002 kPa, x2 = 0.95",154.124 ± 0.059 kg/m3
same,mass density,"349.94 K, 18991 kPa, x2 = 0.5001",88.967 ± 0.041 kg/m3
same,mass density,"349.94 K, 18992 kPa, x2 = 0.9",153.266 ± 0.058 kg/m3
same,mass density,"349.94 K, 18992 kPa, x2 = 0.95",161.661 ± 0.06 kg/m3
same,mass density,"349.94 K, 19744 kPa, x2 = 0.9",158.626 ± 0.058 kg/m3
same,mass density,"349.94 K, 19885 kPa, x2 = 0.5001",92.681 ± 0.042 kg/m3
same,mass density,"349.94 K, 19940 kPa, x2 = 0.95",168.761 ± 0.06 kg/m3
